In patent US20260285853A1, “COMPOUNDS AND METHODS FOR MODULATING SPLICING” (REMIX THERAPEUTICS INC., priority 2023, published 2026) one finds AC50, IC50 and GI50 data, which are given here for 16 compounds.

A word on the AC50: it is the concentration at which the activity in the assay is half-maximal. The IC50 is the concentration at which inhibition is half-maximal. As usually defined, the GI50 is the concentration that inhibits growth by half.

Format in all cases: cell-based
Test [1] deals with MYB mRNA. Kind of test: Splicing RT-qPCR assay (THP), Table 2A. The following applies: Table 2A (THP); for AC50: AJ mRNA increase, read-out: MYB AJ (increase in alternative junction mRNA, AC50); for IC50: CJ mRNA decrease, read-out: MYB CJ (decrease in canonical junction mRNA, IC50). In general terms: Real-time PCR tracks product formation cycle by cycle.
For test [2], the system named is HTT mRNA. Kind of test: Splicing RT-qPCR assay (THP), Table 2A. The following applies: Table 2A (THP); for AC50: AJ mRNA increase, read-out: HTT AJ (increase in alternative junction mRNA, AC50); for IC50: CJ mRNA decrease, read-out: HTT CJ (decrease in canonical junction mRNA, IC50).
Test [3] concerns SH-SY5Y (human neuroblastoma) cells. Kind of test: Cell viability, Cell Titer Glo 2.0 assay. The following applies: read-out: Viability SHSY5Y.3 GI50. In outline:
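Following a 72 h incubation (37 °C, 5% CO2, 0.1% DMSO final), compound toxicity toward SH-SY5Y cells was quantified by CellTiter-Glo 2.0.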
(In general: ATP-based viability assays read luminescence as a measure of living cells.)

Test [4] deals with HTT mRNA. Kind of test: Gene panel canonical junction qPCR assay, decrease in CJ mRNA, Table 3. The following applies: decrease in canonical junction (CJ) mRNA, gene panel qPCR, Table 3. In outline: (§1)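 Eleven-point dose responses from 10 uM final, 24 h, DMSO ≤0.25%, in A673 or K562 cells. Relative quantification by 2^(−ΔΔCt) against housekeeper and vehicle was converted to percent response over fixed ΔCt windows and fitted to yield IC50.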

The test system of test [5] is MYB mRNA. Described as above. Conditions: decrease in canonical junction (CJ) mRNA, gene panel qPCR, Table 3. Put shortly:
as §1

Structures are written as SMILES.

Turning to `Cc1nc(CN)cn2cc(NC(=O)c3c(F)cc(N4CCC(NC5CC5)CC4)c4cn(C)nc34)nc12` [Compound 401, N-[6-(aminomethyl)-8-methyl-imidazo[1,2-a]pyrazin-2-yl]-4-[4-(cyclopropylamino)-1-piperidyl]-6-fluoro-2-methyl-indazole-7-carboxamide], the results for the AC50 in test [1] and in test [2] were 1000 to 10000 nM and more than 10 µM, respectively. Besides, the IC50 in test [1] is 1000 to 10000 nM; in test [2], more than 10 µM; in test [4] it was more than 10 µM; in test [5], 1000 to 10000 nM. In test [3], the GI50 is more than 10000 nM.
Consider `CCNC1CCN(c2cc(F)c(C(=O)Nc3nc4c(C)nc(C)cc4n3C)c3nn(C)cc23)CC1` [Compound 402, 4-(4-(ethylamino)-piperidin-1-yl)-6-fluoro-2-methyl-N-(1,4,6-trimethyl-1H-imidazo[4,5-c]pyridin-2-yl)-2H-indazole-7-carboxamide bis(2,2,2-trifluoroacetate)], for which the AC50 was more than 10000 nM in test [1] and more than 10 µM in test [2]. For the same compound, the 50% inhibitory concentration (IC50) is more than 10000 nM in test [1], more than 10 µM in test [2], more than 10 µM in test [4] and more than 10000 nM in test [5]. Also, the GI50 in test [3] was more than 10000 nM.
As to `Cc1c2cc(NC(=O)c3c(F)cc(N4CCC(NC5CC5)CC4)c4cn(C)nc34)cc(F)c2nn1C` [Compound 403, 4-[4-(cyclopropyl-amino)-1-piperidyl]-6-fluoro-N-(7-fluoro-2,3-dimethyl-indazol-5-y1)-2-methyl-indazole-7-carboxamide], the concentration at half-maximal activity (AC50) in test [1] is more than 10000 nM; in test [2], more than 10 µM. Further, the IC50 in test [1] was more than 10000 nM; in test [2] it was more than 10 µM; in test [4], more than 10 µM; in test [5], more than 10000 nM. Further, the GI50 in test [3] fell in the range of 100 to 1000 nM.
For the compound `Cc1cn2cc(NC(=O)c3c(F)cc(N4CCC(NC5CC5)CC4)c4cn(C)nc34)nc2cn1` [Compound 404, 4-(4-(cyclopropylamino)-piperidin-1-yl)-6-fluoro-2-methyl-N-(6-methylimid-azo-[1,2-a]pyrazin-2-yl)-2H-indazole-7-carbox-amide 2,2,2-trifluoro-acetate], the results for the AC50 in test [1] and in test [2] were less than 100 nM and 1 to 10 µM, respectively. Also, the IC50 is less than 100 nM in test [1], more than 10 µM in test [2], more than 10 µM in test [4] and less than 100 nM in test [5]. In addition, the GI50 in test [3] was 100 to 1000 nM.
On to `COc1c(NC(=O)c2c(F)cc(N3CCC(NC4CC4)CC3)c3cn(C)nc23)cc2cn(C)nc2c1F` [Compound 405, 4-[4-(cyclopropylamino)-1-piperidyl]-6-fluoro-N-(7-fluoro-6-methoxy-2-methyl-indazol-5-yl)-2-methyl-indazole-7-carboxamide], for which the AC50 in test [1] was less than 100 nM; in test [2], 0.1 to 1 µM. For the same compound, the IC50 was less than 100 nM in test [1], 0.1 to 1 µM in test [2], 0.1 to 1 µM in test [4] and less than 100 nM in test [5]. For the same compound, the GI50 in test [3] was less than 100 nM.
Turning to `CCOc1cc2nc(C)cn2cc1NC(=O)c1c(F)cc(N2CCC(NC3CC3)CC2)c2cn(C)nc12` [Compound 406, 4-[4-(cyclopropylamino)-1-piperidyl]-N-(7-ethoxy-2-methyl-imidazo[1,2-a]pyridin-6-yl)-6-fluoro-2-methyl-indazole-7-carboxamide], the figures for the AC50 in test [1] and in test [2] were 100 to 1000 nM and 1 to 10 µM, respectively. Also, the IC50 in test [1] was in the range of 100 to 1000 nM; in test [2] it was 1 to 10 µM; in test [4], 1 to 10 µM; in test [5] it was 100 to 1000 nM. For the same compound, in test [3], the 50% growth inhibitory concentration (GI50) lay within 100 to 1000 nM.
As for `COc1cc2nc(CF)cn2cc1NC(=O)c1c(F)cc(N2CCC(NC3CC3)CC2)c2cn(C)nc12` [Compound 407, [cyclopropyl-[1-[6-fluoro-7-[[2-(fluoromethyl)-7-methoxy-imidazo[1,2-a]-pyridin-6-yl]carbamoyl]-2-methyl-indazol-4-y1]-4-piperidyl]amino] 2,2,2-trifluoroacetate], the AC50 in test [1] is less than 100 nM; in test [2] it was more than 10 µM. In addition, the IC50 in test [1] was less than 100 nM; in test [2] it was more than 10 µM; in test [4], more than 10 µM; in test [5], less than 100 nM. Moreover, the GI50 in test [3] lay within 1000 to 10000 nM.
As for `Cc1cn2cc(NC(=O)c3c(F)cc(N4CCC(NC5CC5)CC4)c4cn(C)nc34)nc(Oc3ccccn3)c2n1` [Compound 408, 4-[4-(cyclopropylamino)-1-piperidy1]-6-fluoro-2-methyl-N-[2-methyl-8-(2-pyridyloxy)imidazo[1,2-a]-pyrazin-6-yl]indazole-7-carboxamide], the AC50 in test [1] is less than 100 nM; in test [2], 0.1 to 1 µM. Moreover, the IC50 in test [1] is less than 100 nM; in test [2] it was 1 to 10 µM; in test [4] it was 1 to 10 µM; in test [5] it was less than 100 nM. For the same compound, the 50% growth inhibitory concentration (GI50) in test [3] was 100 to 1000 nM.
Regarding `Cc1cn2cc(NC(=O)c3c(F)cc(N4CCC(NC5CC5)CC4)c4cn(C)nc34)cc(Oc3cccnn3)c2n1` [Compound 409], the AC50 is 1000 to 10000 nM in test [1] and more than 10 µM in test [2]. The IC50 was in the range of 100 to 1000 nM in test [1], 1 to 10 µM in test [2], 1 to 10 µM in test [4] and 100 to 1000 nM in test [5]. For the same compound, the GI50 in test [3] is more than 10000 nM.
Take `Cc1cn2cc(NC(=O)c3c(F)cc(N4CCC(NC5CC5)CC4)c4cn(C)nc34)cc(Oc3cn[nH]c3)c2n1` [Compound 410, N-(8-((1H-pyrazol-4-yl)oxy)-2-methylimidazo[1,2-a]-pyridin-6-yl)-4-(4-(cyclopropylamino)piperidin-1-yl)-6-fluoro-2-methyl-2H-indazole-7-carboxamide 2,2,2-trifluoroacetate]: the figures for the AC50 in test [1] and in test [2] were more than 10000 nM and more than 10 µM, respectively. Besides, the IC50 in test [1] is more than 10000 nM; in test [2], more than 10 µM; in test [4], more than 10 µM; in test [5] it was more than 10000 nM. In addition, the GI50 in test [3] was more than 10000 nM.
Consider `Cn1cc2c(N3CCC(NC4CC4)CC3)cc(F)c(C(=O)Nc3cccnc3O)c2n1` [Compound 411, 4-[4-(cyclopropylamino)-1-piperidyl]-6-fluoro-N-(2-hydroxy-3-pyridyl)-2-methyl-indazole-7-carboxamide], for which the AC50 is more than 10000 nM in test [1] and more than 10 µM in test [2]. Moreover, the IC50 in test [1] was more than 10000 nM; in test [2], 1 to 10 µM; in test [4] it was 1 to 10 µM; in test [5] it was more than 10000 nM. For the same compound, in test [3], the GI50 was more than 10000 nM.
Take `COc1ncccc1NC(=O)c1c(F)cc(N2CCC(NC3CC3)CC2)c2cn(C)nc12` [Compound 412, 4-(4-(cyclopropylamino)piperidin-1-yl)-6-fluoro-N-(2-methoxypyridin-3-yl)-2-methyl-2H-indazole-7-carboxamide]: the AC50 in test [1] was 1000 to 10000 nM; in test [2], more than 10 µM. In addition, the IC50 in test [1] was 1000 to 10000 nM; in test [2] it was more than 10 µM; in test [4] it was more than 10 µM; in test [5], 1000 to 10000 nM. Moreover, the GI50 in test [3] fell in the range of 1000 to 10000 nM.
With `COc1nnccc1NC(=O)c1c(F)cc(N2CCC(NC3CC3)CC2)c2cn(C)nc12` [Compound 413, 4-[4-(cyclopropylamino)-1-piperidyl]-6-fluoro-N-(3-methoxypyridazin-4-yl)-2-methyl-indazole-7-carboxamide], the AC50 in test [1] is 1000 to 10000 nM; in test [2], more than 10 µM. Further, the IC50 in test [1] was more than 10000 nM; in test [2] it was 1 to 10 µM; in test [4], 1 to 10 µM; in test [5], more than 10000 nM. In addition, in test [3], the 50% growth inhibitory concentration (GI50) lay in the range of 1000 to 10000 nM.
`COc1ccncc1NC(=O)c1c(F)cc(N2CCC(NC3CC3)CC2)c2cn(C)nc12` [Compound 414, 4-[4-(cyclopropylamino)-1-piperidyl]-6-fluoro-N-(4-methoxy-3-pyridyl)-2-methyl-indazole-7-carboxamide]: the AC50 in test [1] was more than 10000 nM; in test [2] it was more than 10 µM. The IC50 was more than 10000 nM in test [1], more than 10 µM in test [2], more than 10 µM in test [4] and more than 10000 nM in test [5]. Besides, in test [3], the GI50 is more than 10000 nM.
In the case of `CCOc1cc2nn(C)cc2cc1NC(=O)c1c(F)cc(N2CCC(NC3CC3)CC2)c2cn(C)nc12` [Compound 415, 4-[4-(cyclopropyl-amino)-1-piperidyl]-N-(6-ethoxy-2-methylindazol-5-yl)-6-fluoro-2-methylindazole-7-carboxamide], the AC50 in test [1] was less than 100 nM; in test [2] it was 0.1 to 1 µM. For the same compound, the IC50 in test [1] is less than 100 nM; in test [2], 0.1 to 1 µM; in test [4] it was 0.1 to 1 µM; in test [5], less than 100 nM. Further, the GI50 in test [3] was 100 to 1000 nM.
In the case of `Cc1nc(CNS(C)(=O)=O)cn2cc(NC(=O)c3c(F)cc(N4CCC(NC5CC5)CC4)c4cn(C)nc34)nc12` [Compound 416, 4-(4-(cyclopropylamino)-piper-idin-1-yl)-6-fluoro-2-meth-yl-N-(8-methyl-6-(methyl-sulfonamidomethyl)-imidazo[1,2-a]pyrazin-2-yl)-2H-indazole-7-carbox-amide 2,2,2-trifluoroacetate], the AC50 in test [1] was more than 10000 nM; in test [2] it was more than 10 µM. Besides, the IC50 in test [1] was more than 10000 nM; in test [2], more than 10 µM; in test [4] it was more than 10 µM; in test [5] it was more than 10000 nM. The GI50 in test [3] was more than 10000 nM.
